Results published in ChEMBL document CHEMBL1137296, “Subtle side-chain modifications of the hop phytoestrogen 8-prenylnaringenin result in distinct agonist/antagonist activity profiles for estrogen receptors alpha and beta” (J Med Chem, 2006).

Columns and labels:
Estrogen receptor = target: T1, Estrogen receptor (Homo sapiens, UniProt P03372)
T1 sequence (P03372 whole entry): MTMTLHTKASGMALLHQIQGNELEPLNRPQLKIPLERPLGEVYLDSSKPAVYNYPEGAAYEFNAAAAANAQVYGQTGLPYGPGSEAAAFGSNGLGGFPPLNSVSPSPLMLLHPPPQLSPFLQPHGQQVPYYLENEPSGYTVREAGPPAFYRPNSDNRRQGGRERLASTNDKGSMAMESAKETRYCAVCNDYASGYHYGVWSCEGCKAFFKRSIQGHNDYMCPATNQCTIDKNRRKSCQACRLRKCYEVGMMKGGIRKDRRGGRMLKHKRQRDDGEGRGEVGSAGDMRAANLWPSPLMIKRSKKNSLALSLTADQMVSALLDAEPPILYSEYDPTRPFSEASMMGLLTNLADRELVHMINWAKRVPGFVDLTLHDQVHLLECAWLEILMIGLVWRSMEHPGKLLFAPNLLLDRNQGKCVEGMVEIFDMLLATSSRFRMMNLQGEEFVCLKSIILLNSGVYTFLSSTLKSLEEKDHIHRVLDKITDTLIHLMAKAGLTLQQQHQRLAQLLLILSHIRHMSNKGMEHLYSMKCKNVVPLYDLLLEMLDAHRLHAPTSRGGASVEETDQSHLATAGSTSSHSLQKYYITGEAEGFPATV
Description: Displacement of [3H]E2 from human recombinant ERalpha LBD by SPA

Estrogen receptor beta = Estrogen receptor beta (Homo sapiens, UniProt Q92731)
Description: Displacement of [3H]E2 from human recombinant ERbeta LBD by SPA

[1] = target: T2, Estrogen receptor (Homo sapiens) (UniProt P03372); details: Huh-7, filed as antagonist
T2 sequence (whole entry): T1 sequence (P03372 whole entry)
Description: Antagonist activity on ERalpha-mediated transcription of ERE-luciferase reporter gene in human Huh7 cells relative to estradiol

Chain of Estrogen receptor beta (Q92731 whole entry): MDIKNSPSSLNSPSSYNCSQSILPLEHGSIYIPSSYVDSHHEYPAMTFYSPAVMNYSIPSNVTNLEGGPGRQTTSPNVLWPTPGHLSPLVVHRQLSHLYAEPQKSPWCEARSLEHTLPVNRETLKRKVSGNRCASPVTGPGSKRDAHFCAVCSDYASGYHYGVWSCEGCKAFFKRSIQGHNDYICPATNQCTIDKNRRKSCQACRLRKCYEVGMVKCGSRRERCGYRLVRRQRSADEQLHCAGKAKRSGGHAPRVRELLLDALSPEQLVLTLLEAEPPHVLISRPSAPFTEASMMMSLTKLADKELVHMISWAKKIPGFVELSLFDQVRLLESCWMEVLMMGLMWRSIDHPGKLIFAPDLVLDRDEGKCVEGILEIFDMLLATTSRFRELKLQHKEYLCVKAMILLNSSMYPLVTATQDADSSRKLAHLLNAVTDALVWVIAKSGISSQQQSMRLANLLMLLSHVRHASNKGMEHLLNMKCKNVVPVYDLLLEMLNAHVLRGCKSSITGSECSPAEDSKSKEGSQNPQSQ

Structure (SMILES) | IC50 (Estrogen receptor) [µM] | IC50 (Estrogen receptor beta) [µM] | Antagonist activity [1]
CCCCCCCCCCCc1c(O)cc(O)c2c1O[C@H](c1ccc(O)cc1)CC2=O | 1.02 | 0.421 | Partial antagonist
O=C1C[C@@H](c2ccc(O)cc2)Oc2c(Cc3ccccc3)c(O)cc(O)c21 | 0.503 | 0.244 | 
CCCCCCCc1c(O)cc(O)c2c1O[C@H](c1ccc(O)cc1)CC2=O | 0.392 | 0.069 | Partial antagonist
O=C1C[C@@H](c2ccc(O)cc2)Oc2cc(O)cc(O)c21 [NARINGENIN] | 75.3 | 13.5 | 
CCCCCCCCCc1c(O)cc(O)c2c1O[C@H](c1ccc(O)cc1)CC2=O | 0.436 | 0.113 | Partial antagonist
Cc1c(O)cc(O)c2c1O[C@H](c1ccc(O)cc1)CC2=O | 5.25 | 0.863 | 

Next, values leading:

IC50 (Estrogen receptor) [µM] | IC50 (Estrogen receptor beta) [µM] | Antagonist activity [1] | Structure (SMILES)
0.155 | 0.029 |  | CCCc1c(O)cc(O)c2c1O[C@H](c1ccc(O)cc1)CC2=O
0.14 | 0.059 |  | CC(C)CCc1c(O)cc(O)c2c1O[C@H](c1ccc(O)cc1)CC2=O
0.383 | 0.097 |  | CCCCCc1c(O)cc(O)c2c1O[C@H](c1ccc(O)cc1)CC2=O
0.216 | 0.141 |  | CC(C)(C)Cc1c(O)cc(O)c2c1O[C@H](c1ccc(O)cc1)CC2=O
0.08 | 0.037 |  | CC(C)Cc1c(O)cc(O)c2c1O[C@H](c1ccc(O)cc1)CC2=O
